Patent US10267797B2, “Detection of oral microbial virulence factors” (The Procter & Gamble Company, priority 2015, dated 2019)
Read-outs that look alike come from different tables or passages of the source.

What was measured:
[1] = system: THP-1 cells stimulated by P. gingivalis LPS 1690; assay: Inhibition of LPS stimulated cytokine production in THP-1 cells; type: cell-based, human; conditions: 0.3 mM to 9 mM citrulline; 300 ng/ml LPS; 24 hours; IL-6, TNF-α, IL-12p70, IL-10, IL-2, IFN-r, IL-1β (FIG. 26)
Procedure: Citrulline was purchased from Sigma-Aldrich (St. Louis, Mo.). THP1-Dual™ cells were purchased from Invivogen (San Diego, Calif.). Cells were cultured following the manufacturer's instruction, as described in EXAMPLE 11. For treatment, 0.3 mM to 9 mM of citrulline were first added to the culture medium. […] After 24 hours of treatment, media was collected and analyzed for cytokine production using 9-plex kit (Meso Scale Diagnostics Rockville, Md.).

[2] = system: E. coli LPS; conditions: 0.63 mM; E. coli LPS 15 μg/ml
[3] = target: TLR2 (Homo sapiens, UniProt O60603); assay: TLR2-SEAP reporter gene assay in HEK 293T cells; conditions: P. gingivalis LPS; stannous 1000 uM (FIG. 4)
Sequence of TLR2 (O60603 21-784): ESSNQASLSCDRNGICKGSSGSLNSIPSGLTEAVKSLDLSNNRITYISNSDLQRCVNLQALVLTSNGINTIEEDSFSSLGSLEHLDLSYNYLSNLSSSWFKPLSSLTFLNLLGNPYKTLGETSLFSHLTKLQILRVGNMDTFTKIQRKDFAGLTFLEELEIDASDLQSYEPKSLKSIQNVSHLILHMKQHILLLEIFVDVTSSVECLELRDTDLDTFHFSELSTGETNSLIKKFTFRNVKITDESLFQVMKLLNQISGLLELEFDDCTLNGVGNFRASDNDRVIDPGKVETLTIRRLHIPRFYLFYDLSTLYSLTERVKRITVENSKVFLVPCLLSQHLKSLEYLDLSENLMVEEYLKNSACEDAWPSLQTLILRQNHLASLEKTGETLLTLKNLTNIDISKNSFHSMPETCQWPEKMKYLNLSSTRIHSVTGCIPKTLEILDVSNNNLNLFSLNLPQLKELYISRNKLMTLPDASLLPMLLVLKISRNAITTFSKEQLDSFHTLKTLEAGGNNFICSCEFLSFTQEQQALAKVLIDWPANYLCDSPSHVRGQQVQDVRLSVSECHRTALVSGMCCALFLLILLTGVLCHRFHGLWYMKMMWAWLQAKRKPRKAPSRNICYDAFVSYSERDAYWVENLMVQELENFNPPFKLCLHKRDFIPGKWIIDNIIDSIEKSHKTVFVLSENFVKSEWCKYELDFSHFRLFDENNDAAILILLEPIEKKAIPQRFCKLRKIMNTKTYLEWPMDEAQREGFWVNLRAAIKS
Description: The cell line is named here as TLR2-SEAP. The reporter gene encodes a secreted enzyme, called embryonic alkaline phosphatase or SEAP. The SEAP reporter is placed under the control of the interferon-β minimal promoter fused to five NFkB and AP-1-binding sites. Furthermore, a CD14 co-receptor gene was transfected into the reporter gene cells expressing TLR2, as CD14 has been identified as a co-receptor for TLR2 ligands to enhance the TLR response. The CD14 co-receptor is needed to transfer LTA to TLR2 receptors. The recombinant TLR2 binds its ligand, or distinct pathogen-associated molecule, initiates a chain of responses, leading to recruitment of NFkB and AP1 transcription factors to the reporter gene promoter, which induce expression of SEAP.
For treatment with LTA, wells of a 96-well plate were seeded with 10,000 cells/well in 100 μL of growth medium. […] On day 4, medium (100 μL) was changed to DMEM medium without fetal calf serum. […] Samples were taken 24 hours later, following addition of samples. Expression of the reporter gene (SEAP) was quantified with a commercially available kit (SEAP Reporter Gene Assay of Cayman Chemical Co., Ann Arbor, Mich.).

[4] = target: T1, TLR4 (Homo sapiens, UniProt O00206+Q9Y6Y9); type: cell-based; conditions: for reduction of P. gingivalis LPS activation on the TLR4 reporter system: P. gingivalis LPS 500 ng/ml
T1 construct: host or cells: HEK 293T (HEK-Blue hTLR4)
T1 sequence (Q9Y6Y9 17-160): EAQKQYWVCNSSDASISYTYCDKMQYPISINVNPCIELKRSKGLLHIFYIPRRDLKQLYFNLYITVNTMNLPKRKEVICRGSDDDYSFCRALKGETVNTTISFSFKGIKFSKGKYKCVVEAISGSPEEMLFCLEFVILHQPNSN
T1 sequence (O00206 24-839): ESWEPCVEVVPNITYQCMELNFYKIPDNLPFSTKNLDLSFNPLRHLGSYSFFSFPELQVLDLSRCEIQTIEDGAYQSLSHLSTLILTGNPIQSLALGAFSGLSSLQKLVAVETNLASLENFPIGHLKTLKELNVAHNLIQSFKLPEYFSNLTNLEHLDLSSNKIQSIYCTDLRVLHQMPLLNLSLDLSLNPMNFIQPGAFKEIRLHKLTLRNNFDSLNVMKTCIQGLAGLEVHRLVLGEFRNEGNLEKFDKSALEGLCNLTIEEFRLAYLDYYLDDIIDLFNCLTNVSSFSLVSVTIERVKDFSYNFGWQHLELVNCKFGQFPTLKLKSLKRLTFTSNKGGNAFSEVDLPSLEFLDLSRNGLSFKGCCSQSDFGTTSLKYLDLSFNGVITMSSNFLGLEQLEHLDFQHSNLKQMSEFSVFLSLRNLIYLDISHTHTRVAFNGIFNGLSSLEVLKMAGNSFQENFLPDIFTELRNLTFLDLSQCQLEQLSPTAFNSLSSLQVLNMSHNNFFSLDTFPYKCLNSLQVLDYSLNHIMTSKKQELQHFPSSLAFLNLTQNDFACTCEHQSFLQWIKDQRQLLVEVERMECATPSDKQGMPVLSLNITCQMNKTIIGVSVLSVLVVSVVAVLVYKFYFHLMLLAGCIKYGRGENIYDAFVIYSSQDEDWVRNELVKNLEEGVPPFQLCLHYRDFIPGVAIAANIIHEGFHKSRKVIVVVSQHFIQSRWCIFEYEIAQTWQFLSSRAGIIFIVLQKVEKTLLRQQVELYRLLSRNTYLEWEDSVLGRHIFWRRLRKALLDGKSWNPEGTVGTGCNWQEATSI
Description: The cell line is named here as TLR4-SEAP. The reporter gene encodes a secreted enzyme, called embryonic alkaline phosphatase or SEAP. The SEAP reporter is placed under the control of the interferon-β minimal promoter fused to five NFkB and AP-1-binding sites. Furthermore, the TLR4-SEAP cell line also contains a CD14 co-receptor gene, which is needed to transfer LPS to TLR4 receptors. The recombinant TLR binds its ligand, or distinct pathogen-associated molecule, initiates a chain of responses, leading to recruitment of NFkB and AP1 transcription factors to the reporter gene promoter, which induce expression of SEAP.
For treatment, wells of a 96-well plate were seeded with 10,000 cells/well in 100 μL of growth medium. […] On day 4, medium was changed to assay medium (90 μl), which is the DMEM medium without fetal calf serum. […] 10 μl of the bacteria, LPS and culture medium of bacterial growth were added to the TLR4-SEAP cells. Samples were taken 24 hours later, following addition of LPS, bacteria, and culture medium. Expression of the reporter gene (SEAP) was quantified with a commercially available kit (SEAP Reporter Gene Assay of Cayman Chemical Co., Ann Arbor, Mich.).
EC50 was calculated using GraphPad Prism software (GraphPad Software, La Jolla, Calif.).
Tests were conducted to understand whether stannous fluoride could reduce LPS's ability to trigger proinflammatory responses in host cells.

Row | Compound | effect on P. gingivalis LPS 1690 stimulated proinflammatory cytokine production [1] | Displacement % [2] | level of P. gingivalis induction of TLR-2 [3] | level of E. coli induction of TLR-4 ([4]; 100 ng/ml E. coli LPS, stannous 500 uM or higher (FIG. 3)) | reduction of P. gingivalis LPS activation on the TLR4 reporter system ([4]; 3.2 mM (FIG. 5)) | reduction of P. gingivalis LPS activation on the TLR4 reporter system ([4]; […] (FIG. 5))
1 | NC(=O)NCCC[C@H](N)C(=O)O [Citrulline] | inhibited |  |  |  |  | 
2 | [F][Sn][F] [Tin (II) fluoride] |  | 12.69% | decreased | decreased | about 50% | about 50%
